Legend:
[1] = biological target: T1, LTB-4 receptor (Homo sapiens, UniProt Q15722); test: LTB-4 receptor binding assay: binding of [H^3]-LTB-4 to intact human neutrophils; conditions: [H^3]-LTB-4, intact human neutrophils
T1 construct: to intact human neutrophils; endogenous in cells; host or cells: intact neutrophils prepared from human venous blood
Experimental: LTB-4 receptor binding is dete mined in the following assay involving receptor binding of [H^3 ]-LTB-4 to intact human neutrophils.
(§1) LTB-4 is purchased as a solution in either ethanol or DMSO (Biomol, Plymouth Meeting, Pa.) and diluted into Hank's balanced Salt Solution (HBSS) before use. For in vitro tests, test compounds are dissolved in DMSO to produce stock solution of 10 mM. Dilutions are made so that the final concentration of DMSO is 0.35%.
Neutrophils are prepared from […] human venous blood. Blood (25 ml) is mixed with HESPAN (15 ml)(DuPont, Wilmington, Del.) and allowed to stand at room temperature for 40 minutes. The supernatant is removed and centrifuged for 10 minutes at 400×g. The resulting pellet is resuspended in phosphate-buffered saline without calcium and magnesium (GIBCO, Grand Islands N.Y.). Thirty-five ml of the resuspended cells is layered over 15 ml of Ficoll-Paque (Sigma, St Louis, Mo.) and then centrifuged for 15 minutes at 420×g. The resulting cell pllet is resuspended in 10 ml of phosphate-buffered saline without calcium and magnesium. Twenty-five ml of deionized water are added to the suspension for 20 seconds followed by the same volume of buffer at twice the normal concentration. The suspension is centrifuged for 5 minutes at 200×g,and the pellet resuspended in Hank's Balanced Salt Solution (HBSS).
Binding of [H^3 ]-LTB-4 to neutrophils is measured as described by Gorman and Lin, Methods Enzymol. 141: 372-378 (1987) and Jackson et al., J. Pharmacol.Exp. Ther., Vol. 262, p. 80 (1992). Intact human ntutrophils (3×106) are added to HBSS containing 0.5 nM [H^3 ]-LTB-4 (specific activity 32 Ci/mmol, DuPont-NEN, Boston, Mass.) and compound (final volume 0.5 ml). After incubating for 20 minutes at 0° C., the bound radioactivity is collected on Whatman GF/C filters by vacuum filtration using a Brandel harvester. The filters are washed twice with ice cold HBSS. Filters are counted using Formula-989 scintillation cocktail (DuPont-NEN, Boston, Mass.). Non-specific binding is determined in the presence of 300 nM LTB-4 (Biomol Res. Labs, Plymouth Meeting, Pa.).

[2] = tested on: LTB-4-induced intracellular calcium rise in human neutrophils; test: Inhibition of the LTB-4-induced intracellular calcium rise in human neutrophils; format: cell-based; conditions: Neutrophil, read-out: Concentration at which calcium rise is inhibited
Experimental: as §1
Inhibition of LTB-4 is determined by measuring the inhibition of the LTB-4-induced intracellular calcium rise in human neutrophils. Increases in intracellular Ca++ are measured as described by Seligmann et al., Agents and Actions, Vol. 21, p. 375 (1987). Neutrophils are purified from citrated human venous blood by sedimentation in HESPAN as described above. Neutrophils are isolated from the resulting pellet by centrifugal elutriation (Berkow et al., J. Lab. Clin. Med., Vol. 104, p. 698, 1984). Except were noted the neutrophils are incubated with acetoxymetbyl ester of Fura-2 (0.2 μM)(Molecular Probes Inc.) for 30 minutes at 37° C. in HEPES-buffered Hank's solution containing Ca++ and Mg++. The Fura-2 loaded cells are washed and stored on ice at a concentration of 2×10^6 cells/ml in 10 mM HEPES-buffered HBSS without Ca++ and Mg++. Fifteen minutes before assay, 1.5 ml of the cell suspension is mixed with 10 μl of 0.15 M Ca++ and 0.15 M Mg++ by stirring at 37° C. Compounds are added 40 seconds before the addition of 1 nM LTB-4. The change in fluorescence was followed using a DMX 1000 spectrofluorometer (SLM-Aminco Instruments, Urbana Ill.).

[3] = tested on: arachidonic acid-induced mouse ear inflammation; test: Arachidonic acid-induced mouse ear inflammation model; format: in vivo
Experimental: The methodology used is essentially that described by Young et al., J. Invest. Dermatol. 82, 367-371 (1984). Female mice (A/J, Jakson Labs., Bar Harbor, Me.) weighing 20 gm are divided into groups consisting of six mice per treatment group. They are fasted overnight. Arachidonic acid (2 mg in 15 μl acetone) (Sigma, St Louis, Mo.) is applied to the inner surface of the right ear. The left ear received 15 μl of acetone. […] […] Edema is determined by subtracting the weight of the left ear punch from that of the right ear. As the marker for neutrophil infiltration, myeloperoxidase activity is measured as described by Bradley et al., J. Invest. Dermatol., Vol. 78, p. 206 (1982). The right ear punches from the both the vehicle and compound treated groups are used. The percentage of inhibition is calculated by comparing the myeloperoxidase activity of the compound treated groups with those of the vehicle treated group.

[4] = 3 mg/Kg p.o., 1.5 hours post administration
[5] = 10 mg/Kg p.o., 18 hours post administration

T1 sequence (Q15722 whole entry): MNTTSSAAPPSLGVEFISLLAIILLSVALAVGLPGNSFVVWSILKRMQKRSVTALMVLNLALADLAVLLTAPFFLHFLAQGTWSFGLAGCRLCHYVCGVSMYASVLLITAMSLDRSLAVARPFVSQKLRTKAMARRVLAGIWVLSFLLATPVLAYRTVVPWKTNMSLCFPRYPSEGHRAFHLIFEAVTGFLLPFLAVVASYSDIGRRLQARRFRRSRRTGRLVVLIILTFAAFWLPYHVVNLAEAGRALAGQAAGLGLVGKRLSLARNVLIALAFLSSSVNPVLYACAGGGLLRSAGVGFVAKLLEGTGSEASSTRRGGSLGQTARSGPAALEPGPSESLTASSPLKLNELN

Row | SMILES | IC50 [1] | IC50 [2] | Inhibition of edema [3, 4] | Inhibition of myeloperoxidase activity [3, 4] | Inhibition of edema [3, 5] | Inhibition of myeloperoxidase activity [3, 5]
1 | CCN(CC)C(=O)/C=C(\C)c1ccc(OCc2c(F)cccc2F)c(OCC(=O)O)c1 [Example 2y, (E)-[5-(2-Diethylcarbamoyl-1-methylvinyl)-2-(2,6-difluorobenzyloxy)-phenoxy]-acetic acid] | ~48 nM | ~18 nM | inhibit | inhibit | inhibit | inhibit
2 | CCN(CC)C(=O)/C=C(\C)c1ccc(OCc2c(F)cccc2F)c(CC(=O)O)c1 [Example 8a, (E)-[5-(2-diethylcarbamoyl-1-methyl-vinyl)-2-(2,6-difluorobenzyloxy)-phenyl]-acetic acid] | ~87 nM | ~22 nM | inhibit | inhibit | inhibit | inhibit
3 | CCN(CC)C(=O)/C=C(\C)c1ccc(OC(C)c2ccccc2)c(CC(=O)O)c1 (stereo not drawn) [Example 8b, (E)-[5(2-diethylcarbamoyl-1-methylvinyl)-2-(1-phenyl-ethoxy)-phenyl]-acetic acid] | ~74 nM | ~8 nM | inhibit | inhibit | inhibit | inhibit

Reference: patent publication US6291530A, “Aryl-substituted acrylamides with Leukotriene B4 (LTB-4) receptor antagonist activity” (Novartis AG, priority 1999, dated 2001)
